Data reported in US12357565B2, “Ocular implant containing a tyrosine kinase inhibitor” (Ocular Therapeutix, Inc., priority 2020, dated 2025).

Legend:
[1] = system: VEGF-induced vascular leakage; assay: VEGF challenge in rabbits: vascular leakage scored by fluorescein angiography; format: in vivo; conditions: rabbit; 1.25 mg Avastin® alone (group 3)
[2] = 1.25 mg dose, rabbits (Sinapis et al., 2011); cited from earlier work
[3] = Rugo et al. 2005, patients; cited from earlier work

| Molecule | Time after which vascular leakage re-occurred (effect lasted until) [1] [months] | Half-life [2] [h] | Clearance half-life (t1/2) [3] |
| --- | --- | --- | --- |
| Avastin®: anti-VEGF therapeutic, 1.25 mg intravitreal | 3 | 158 |  |
| CNC(=O)c1ccccc1Sc1ccc2c(/C=C/c3ccccn3)n[nH]c2c1 [axitinib, N-methyl-2-[3-((E)-2-pyridin-2-yl-vinyl)-1H-indazol-6-ylsulfanyl]-benzamide] |  |  | a few hours |
